# Test results from ChEMBL document CHEMBL4507295 (2021).
# What was measured:
# [1] = target: 5-hydroxytryptamine receptor 7 (Homo sapiens, UniProt P34969); assay: GPCRScan assay: inhibition of 5-HT7A; set-up: radioligand conc. used [nm] 5.0 – 6.0, parental cells Stable HEK
# [2] = target: Cysteinyl leukotriene receptor 1 (Homo sapiens) (UniProt Q9Y271); assay: Inhibition of Leukotriene, Cysteinyl CysLT1 at 10 µM in the Eurofins-Panlabs radioligand binding assay (Eurofins_assay_250460); set-up: ligand concentration 0.3 nM, non-specific ligand with concentration 0.3 µM Leukotriene D4, incubation time 30 min, incubation temperature 25 °C; details: Compound concentration 10.0 uM
# [3] = target: Neuropeptide Y receptor type 1 (Homo sapiens) (UniProt P25929); assay: Inhibition of Neuropeptide Y Y1 at 10 µM in the Eurofins-Panlabs radioligand binding assay (Eurofins_assay_257010); details: Compound concentration 10.0 uM
# [4] = target: Platelet-activating factor receptor (Homo sapiens) (UniProt P25105); assay: Inhibition of Platelet Activating Factor (PAF) at 10 µM in the Eurofins-Panlabs radioligand binding assay (Eurofins_assay_265010); details: Compound concentration 10.0 uM
# [5] = target: ATP-sensitive inward rectifier potassium channel 11 (Cricetulus griseus) (UniProt A0A3L7HHE1); assay: Inhibition of Potassium Channel [KATP] at 10 µM in the Eurofins-Panlabs radioligand binding assay (Eurofins_assay_265600); details: Cricetinae; Compound concentration 10.0 uM
# [6] = target: Substance-P receptor (Homo sapiens) (UniProt P25103); assay: Tachykinin NK1 Eurofins-Panlabs radioligand binding assay; details: Compound concentration 10.0 uM
# [7] = target: Nociceptin receptor (Homo sapiens) (UniProt P41146); assay: Orphanin ORL1 Eurofins-Panlabs radioligand binding assay; details: Compound concentration 10.0 uM
# [8] = target: Prostaglandin E2 receptor EP3 subtype (Homo sapiens) (UniProt P43115); assay: Prostanoid EP3 Eurofins-Panlabs radioligand binding assay; set-up: ligand concentration 0.5 nM, non-specific ligand with concentration 10 µM Prostaglandin EŽ2 (PGE2), incubation time 60 min, incubation temperature 25 °C; details: Compound concentration 10.0 uM
# [9] = target: Bombesin receptor (Rattus norvegicus) (UniProt P52500+P24053+Q8K418); assay: Bombesin, Non-Selective Eurofins-Panlabs radioligand binding assay; format: protein assay; details: Compound concentration 10.0 uM
# [10] = organism: Homo sapiens; assay: Calcitonin Gene-Related Peptide CGRP1 Eurofins-Panlabs radioligand binding assay; format: protein-complex assay; details: Compound concentration 10.0 uM
# [11] = target: Galanin receptor type 1 (Homo sapiens) (UniProt P47211); assay: Galanin GAL1 Eurofins-Panlabs radioligand binding assay; details: Compound concentration 10.0 uM
# [12] = target: Inositol 1,4,5-trisphosphate-gated calcium channel ITPR1 (Homo sapiens) (UniProt Q14643); assay: Inositol Trisphosphate IP3 Eurofins-Panlabs radioligand binding assay; details: Rattus norvegicus; Compound concentration 10.0 uM
# [13] = target: Oxytocin receptor (Homo sapiens) (UniProt P30559); assay: Oxytocin Eurofins-Panlabs radioligand binding assay; details: Compound concentration 10.0 uM
# [14] = target: Prostaglandin F2-alpha receptor (Homo sapiens) (UniProt P43088); assay: Prostanoid FP Eurofins-Panlabs radioligand binding assay; set-up: ligand concentration 0.95 nM; details: Compound concentration 10.0 uM
# [15] = target: Vasopressin V2 receptor (Homo sapiens) (UniProt P30518); assay: Vasopressin V2 Eurofins-Panlabs radioligand binding assay; set-up: ligand concentration 0.5 nM; details: Compound concentration 10.0 uM
# [16] = target: Alpha-1D adrenergic receptor (Homo sapiens) (UniProt P25100); details: Compound concentration 10.0 uM
# [17] = target: T1, Muscarinic acetylcholine receptor M1 (Homo sapiens) (UniProt P11229); details: Compound concentration 10.0 uM
# T1 sequence (whole entry): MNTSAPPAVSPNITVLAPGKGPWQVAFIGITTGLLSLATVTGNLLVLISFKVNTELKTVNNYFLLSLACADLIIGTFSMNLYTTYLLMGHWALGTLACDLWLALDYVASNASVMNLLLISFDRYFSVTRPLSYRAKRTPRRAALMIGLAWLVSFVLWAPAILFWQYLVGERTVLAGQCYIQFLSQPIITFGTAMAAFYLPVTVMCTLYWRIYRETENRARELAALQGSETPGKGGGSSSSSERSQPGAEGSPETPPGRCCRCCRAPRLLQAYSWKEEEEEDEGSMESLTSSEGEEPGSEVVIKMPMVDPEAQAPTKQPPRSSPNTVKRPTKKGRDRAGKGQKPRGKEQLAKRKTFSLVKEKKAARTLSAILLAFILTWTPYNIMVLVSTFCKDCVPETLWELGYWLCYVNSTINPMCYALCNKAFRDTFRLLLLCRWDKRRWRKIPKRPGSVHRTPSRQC
# [18] = target: Muscarinic acetylcholine receptor M3 (Homo sapiens) (UniProt P20309); details: Compound concentration 10.0 uM
# [19] = organism: Rattus norvegicus; details: Compound concentration 10.0 uM
# [20] = target: T2, Alpha-2B adrenergic receptor (Homo sapiens) (UniProt P18089); details: Compound concentration 10.0 uM
# T2 sequence (whole entry): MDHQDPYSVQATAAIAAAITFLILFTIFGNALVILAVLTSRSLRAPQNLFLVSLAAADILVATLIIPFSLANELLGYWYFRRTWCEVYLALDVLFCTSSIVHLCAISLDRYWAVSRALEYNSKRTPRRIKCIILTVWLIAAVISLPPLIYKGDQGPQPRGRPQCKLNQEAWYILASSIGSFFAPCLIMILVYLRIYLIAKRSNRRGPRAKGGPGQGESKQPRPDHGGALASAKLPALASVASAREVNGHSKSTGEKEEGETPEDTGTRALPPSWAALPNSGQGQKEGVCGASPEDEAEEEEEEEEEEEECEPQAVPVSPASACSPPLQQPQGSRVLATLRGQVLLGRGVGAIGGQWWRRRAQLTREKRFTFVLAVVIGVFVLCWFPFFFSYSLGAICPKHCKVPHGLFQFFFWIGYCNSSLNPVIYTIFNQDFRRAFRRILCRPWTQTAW
# [21] = target: T3, Muscarinic acetylcholine receptor M4 (Homo sapiens) (UniProt P08173); details: Compound concentration 10.0 uM
# T3 sequence (whole entry): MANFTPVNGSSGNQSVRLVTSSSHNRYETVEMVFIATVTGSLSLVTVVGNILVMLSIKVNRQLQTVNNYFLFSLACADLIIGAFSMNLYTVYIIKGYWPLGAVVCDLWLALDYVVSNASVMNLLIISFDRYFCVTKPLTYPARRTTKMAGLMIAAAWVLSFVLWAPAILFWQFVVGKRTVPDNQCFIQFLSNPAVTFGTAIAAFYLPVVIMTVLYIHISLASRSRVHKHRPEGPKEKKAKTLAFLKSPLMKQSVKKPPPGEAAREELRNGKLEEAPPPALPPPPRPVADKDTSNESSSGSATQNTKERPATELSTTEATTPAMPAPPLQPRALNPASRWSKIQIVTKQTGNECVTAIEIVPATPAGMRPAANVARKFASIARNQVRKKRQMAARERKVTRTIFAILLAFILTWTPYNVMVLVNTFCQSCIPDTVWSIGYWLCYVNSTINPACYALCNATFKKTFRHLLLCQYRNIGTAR
# [22] = target: Phosphatidylinositol 4,5-bisphosphate 3-kinase catalytic subunit beta isoform (Homo sapiens) (UniProt P42338); details: Compound concentration 1000.0 nM
# [23] = target: TGF-beta receptor type-1 (Homo sapiens) (UniProt P36897); details: Compound concentration 1000.0 nM
# [24] = target: D(2) dopamine receptor (Homo sapiens) (UniProt P14416); details: Compound concentration 10.0 uM
# Chain of D(2) dopamine receptor (Homo sapiens) (P14416 whole entry): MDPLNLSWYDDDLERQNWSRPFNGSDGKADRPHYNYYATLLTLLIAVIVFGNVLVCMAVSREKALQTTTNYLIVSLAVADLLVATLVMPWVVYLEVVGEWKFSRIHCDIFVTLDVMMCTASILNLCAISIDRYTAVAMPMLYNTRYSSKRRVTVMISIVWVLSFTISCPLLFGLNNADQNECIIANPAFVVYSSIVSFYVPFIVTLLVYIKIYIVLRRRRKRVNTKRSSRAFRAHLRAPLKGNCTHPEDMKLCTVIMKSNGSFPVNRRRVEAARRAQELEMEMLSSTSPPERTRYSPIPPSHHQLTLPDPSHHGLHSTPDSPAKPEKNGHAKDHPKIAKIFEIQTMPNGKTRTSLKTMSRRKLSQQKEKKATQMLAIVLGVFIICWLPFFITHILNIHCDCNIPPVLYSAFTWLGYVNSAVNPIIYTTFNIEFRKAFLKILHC
# Chain of Galanin receptor type 1 (Homo sapiens) (P47211 whole entry): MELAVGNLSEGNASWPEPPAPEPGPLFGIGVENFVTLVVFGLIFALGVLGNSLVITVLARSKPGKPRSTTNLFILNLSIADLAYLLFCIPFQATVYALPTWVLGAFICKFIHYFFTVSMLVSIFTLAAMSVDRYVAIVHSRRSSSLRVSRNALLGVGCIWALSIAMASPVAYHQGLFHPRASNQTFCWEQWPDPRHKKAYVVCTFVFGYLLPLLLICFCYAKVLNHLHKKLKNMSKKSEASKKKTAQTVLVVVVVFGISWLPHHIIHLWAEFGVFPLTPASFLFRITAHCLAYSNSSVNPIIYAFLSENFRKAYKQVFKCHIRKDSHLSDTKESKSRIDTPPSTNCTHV
# Chain of 5-hydroxytryptamine receptor 7 (P34969 whole entry): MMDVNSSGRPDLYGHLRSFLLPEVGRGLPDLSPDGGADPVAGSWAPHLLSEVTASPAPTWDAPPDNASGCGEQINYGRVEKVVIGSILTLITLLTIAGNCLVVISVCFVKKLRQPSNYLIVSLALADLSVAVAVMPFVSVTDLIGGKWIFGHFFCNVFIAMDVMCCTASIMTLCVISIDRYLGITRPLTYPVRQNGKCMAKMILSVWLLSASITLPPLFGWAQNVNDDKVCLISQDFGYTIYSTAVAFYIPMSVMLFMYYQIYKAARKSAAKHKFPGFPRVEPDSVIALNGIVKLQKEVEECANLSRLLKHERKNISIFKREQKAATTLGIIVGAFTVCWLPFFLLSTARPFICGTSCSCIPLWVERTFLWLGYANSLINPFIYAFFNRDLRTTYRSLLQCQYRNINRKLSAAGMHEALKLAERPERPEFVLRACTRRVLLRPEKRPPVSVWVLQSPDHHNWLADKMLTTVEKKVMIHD
# Chain of Bombesin receptor (Rattus norvegicus) (P24053 whole entry, looked up): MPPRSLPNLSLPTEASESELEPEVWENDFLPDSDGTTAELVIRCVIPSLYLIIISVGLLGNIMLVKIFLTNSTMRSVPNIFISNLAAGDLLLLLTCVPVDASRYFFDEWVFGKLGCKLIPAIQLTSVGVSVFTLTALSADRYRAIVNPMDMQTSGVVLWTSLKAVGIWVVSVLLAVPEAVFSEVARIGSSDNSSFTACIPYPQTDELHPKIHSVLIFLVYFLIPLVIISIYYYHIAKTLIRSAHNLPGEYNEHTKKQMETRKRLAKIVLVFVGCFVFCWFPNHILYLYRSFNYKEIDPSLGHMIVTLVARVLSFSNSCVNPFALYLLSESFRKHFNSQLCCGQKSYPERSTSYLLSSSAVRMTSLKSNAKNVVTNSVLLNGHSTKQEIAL
# Chain of Bombesin receptor (Rattus norvegicus) (P52500 whole entry, looked up): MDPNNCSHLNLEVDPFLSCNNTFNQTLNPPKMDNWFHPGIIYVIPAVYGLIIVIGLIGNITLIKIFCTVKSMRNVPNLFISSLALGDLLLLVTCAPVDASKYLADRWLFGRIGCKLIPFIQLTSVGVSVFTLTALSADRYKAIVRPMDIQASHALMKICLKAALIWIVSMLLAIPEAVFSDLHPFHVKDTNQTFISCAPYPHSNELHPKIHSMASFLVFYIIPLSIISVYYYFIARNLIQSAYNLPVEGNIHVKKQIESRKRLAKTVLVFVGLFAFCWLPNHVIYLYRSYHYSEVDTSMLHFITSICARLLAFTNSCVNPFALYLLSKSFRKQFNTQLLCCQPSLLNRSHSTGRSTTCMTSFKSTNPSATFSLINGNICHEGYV
# Chain of Bombesin receptor (Rattus norvegicus) (Q8K418 whole entry, looked up): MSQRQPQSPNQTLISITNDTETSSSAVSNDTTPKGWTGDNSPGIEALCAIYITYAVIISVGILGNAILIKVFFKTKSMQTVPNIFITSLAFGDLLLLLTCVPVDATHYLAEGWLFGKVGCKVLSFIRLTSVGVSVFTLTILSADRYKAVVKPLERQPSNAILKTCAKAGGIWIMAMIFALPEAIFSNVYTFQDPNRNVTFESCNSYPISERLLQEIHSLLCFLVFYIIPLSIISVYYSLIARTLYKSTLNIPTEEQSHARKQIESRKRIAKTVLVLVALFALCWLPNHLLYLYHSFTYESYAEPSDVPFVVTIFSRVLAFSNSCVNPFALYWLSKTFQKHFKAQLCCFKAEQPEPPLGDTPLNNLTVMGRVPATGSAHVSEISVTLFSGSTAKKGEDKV
# Chain of Neuropeptide Y receptor type 1 (Homo sapiens) (P25929 whole entry): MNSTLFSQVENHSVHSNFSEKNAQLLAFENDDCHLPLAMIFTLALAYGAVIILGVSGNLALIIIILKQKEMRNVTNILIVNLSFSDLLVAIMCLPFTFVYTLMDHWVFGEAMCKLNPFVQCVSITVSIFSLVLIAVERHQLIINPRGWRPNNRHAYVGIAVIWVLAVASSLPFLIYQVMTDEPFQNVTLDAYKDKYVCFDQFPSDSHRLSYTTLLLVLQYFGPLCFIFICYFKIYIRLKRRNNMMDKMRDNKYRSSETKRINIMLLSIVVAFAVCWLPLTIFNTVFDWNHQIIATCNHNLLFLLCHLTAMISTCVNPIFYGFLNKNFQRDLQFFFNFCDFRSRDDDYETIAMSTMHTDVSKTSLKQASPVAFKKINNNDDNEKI
# Chain of Prostaglandin F2-alpha receptor (Homo sapiens) (P43088 whole entry): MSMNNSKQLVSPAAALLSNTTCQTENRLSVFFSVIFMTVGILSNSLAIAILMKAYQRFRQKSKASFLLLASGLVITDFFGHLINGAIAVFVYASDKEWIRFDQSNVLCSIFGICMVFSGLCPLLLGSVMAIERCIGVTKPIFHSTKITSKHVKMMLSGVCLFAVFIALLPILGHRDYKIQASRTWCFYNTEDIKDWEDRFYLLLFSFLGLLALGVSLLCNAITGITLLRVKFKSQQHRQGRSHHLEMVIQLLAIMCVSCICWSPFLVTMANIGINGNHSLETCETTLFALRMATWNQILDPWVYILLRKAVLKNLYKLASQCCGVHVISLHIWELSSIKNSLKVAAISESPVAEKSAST
# Chain of Nociceptin receptor (Homo sapiens) (P41146 whole entry): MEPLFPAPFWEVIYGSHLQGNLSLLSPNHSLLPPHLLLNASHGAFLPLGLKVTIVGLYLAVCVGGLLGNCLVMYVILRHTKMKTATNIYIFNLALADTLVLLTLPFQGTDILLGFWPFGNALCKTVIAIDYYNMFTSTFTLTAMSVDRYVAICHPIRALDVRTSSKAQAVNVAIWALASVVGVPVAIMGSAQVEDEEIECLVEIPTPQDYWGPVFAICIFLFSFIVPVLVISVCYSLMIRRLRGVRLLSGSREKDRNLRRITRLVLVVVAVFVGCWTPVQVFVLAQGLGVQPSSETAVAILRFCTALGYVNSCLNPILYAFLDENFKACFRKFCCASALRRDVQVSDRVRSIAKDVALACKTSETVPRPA
# Chain of Prostaglandin E2 receptor EP3 subtype (Homo sapiens) (P43115 whole entry): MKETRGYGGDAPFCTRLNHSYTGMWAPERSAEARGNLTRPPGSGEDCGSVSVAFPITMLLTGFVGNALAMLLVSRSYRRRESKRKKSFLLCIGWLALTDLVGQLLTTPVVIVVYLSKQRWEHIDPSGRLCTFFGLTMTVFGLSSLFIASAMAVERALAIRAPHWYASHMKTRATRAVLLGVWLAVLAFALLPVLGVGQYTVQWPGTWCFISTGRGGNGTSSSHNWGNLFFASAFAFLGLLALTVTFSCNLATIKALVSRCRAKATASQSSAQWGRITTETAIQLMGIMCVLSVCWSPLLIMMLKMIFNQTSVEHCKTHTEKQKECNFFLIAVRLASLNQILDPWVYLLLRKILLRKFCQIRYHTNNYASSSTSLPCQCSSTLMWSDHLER
# Chain of Vasopressin V2 receptor (Homo sapiens) (P30518 whole entry): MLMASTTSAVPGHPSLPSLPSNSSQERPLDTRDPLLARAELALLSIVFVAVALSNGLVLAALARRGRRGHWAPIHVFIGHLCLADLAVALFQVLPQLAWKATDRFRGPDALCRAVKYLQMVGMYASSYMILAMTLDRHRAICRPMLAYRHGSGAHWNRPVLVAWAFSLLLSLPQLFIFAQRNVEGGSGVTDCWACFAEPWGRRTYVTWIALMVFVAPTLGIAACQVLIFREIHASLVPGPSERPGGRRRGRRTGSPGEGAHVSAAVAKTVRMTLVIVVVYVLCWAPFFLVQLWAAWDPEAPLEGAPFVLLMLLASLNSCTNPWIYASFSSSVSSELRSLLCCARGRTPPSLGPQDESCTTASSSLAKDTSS
# Chain of ATP-sensitive inward rectifier potassium channel 11 (Cricetulus griseus) (A0A3L7HHE1 as listed by the source): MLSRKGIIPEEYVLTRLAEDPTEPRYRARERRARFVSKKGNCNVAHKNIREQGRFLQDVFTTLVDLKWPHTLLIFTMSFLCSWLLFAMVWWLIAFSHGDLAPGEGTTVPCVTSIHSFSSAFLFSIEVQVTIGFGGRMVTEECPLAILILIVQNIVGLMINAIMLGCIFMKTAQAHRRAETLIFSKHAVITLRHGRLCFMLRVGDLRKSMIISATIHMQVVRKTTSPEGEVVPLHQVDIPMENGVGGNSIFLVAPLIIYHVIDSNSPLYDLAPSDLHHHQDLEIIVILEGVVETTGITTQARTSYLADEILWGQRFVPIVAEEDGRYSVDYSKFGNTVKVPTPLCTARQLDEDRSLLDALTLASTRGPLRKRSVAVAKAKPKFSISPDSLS
compound,measurement,setting,value
N#CC1(c2ccccn2)CCN(Cc2cc(C(=O)O)c(=O)n3ccccc23)CC1 [MSD-M1PAM],Ki,[1],10 µM
same,inhibition,[2],-5%
same,inhibition,[3],-1%
same,inhibition,[4],-5%
same,inhibition,[5],1%
same,inhibition,[6],0%
same,inhibition,[7],14%
same,inhibition,[8],3%
same,inhibition,[9],6%
same,inhibition,[10],-6%
same,inhibition,[11],2%
same,inhibition,[12],-3%
same,inhibition,[13],-5%
same,inhibition,[14],12%
same,inhibition,[15],-2%
same,inhibition,[16],-5.73%
same,inhibition,[17],3%
same,inhibition,[18],3%
same,inhibition,[19],-4%
same,inhibition,[20],-8%
same,inhibition,[21],0%
N#CC1(c2ccccn2)CCN(Cc2cc(C(=O)N3CCCC3)c(=O)n3ccccc23)CC1,residual activity,[22],100%
same,residual activity,[23],72%
same,inhibition,[24],-5.66%
